In patent US20240190922A1, “PEPTIDE PLATINUM COMPLEXES AND METHODS OF USE THEREOF” (priority 2020, published 2024):
Ends that are not written are not given here.

Test system: A375 cells (human skin melanoma derived cell line)
Experiment: A375 cell killing assay (CellTiter-Glo luminescence)
Format: cell-based
Details: for potency relative to Onco-001 (times more potent): from EC50 values
Protocol: Alternatively, A375 cells (human skin melanoma derived cell line) are harvested by centrifugation and then re-suspended in a culture medium. The cell density is adjusted, and cell suspension transferred to the assay multi-well plate. The marginal wells are filled with PBS. The assay plate is incubated in a cell incubator for about 16˜18 hours. Working solutions of test compounds and positive control at various concentrations are added to corresponding wells of the plate. The assay plate is then incubated for an additional 72 hours in a 37° C./5% CO2 incubator. After incubation, the working solution of CellTiter-Glo® reagent is added to the corresponding wells and shaken on an orbital shaker. The assay plate is incubated at room temperature for a short while to stabilize the luminescent signal. Luminescence signals are measured by a luminescence plate reader, such as PheraStar (BMG). Data are stored on a local computer or computer server for analysis.

Substance	potency relative to Onco-001 (times more potent)	EC50 (72 hours incubation, CellTiter-Glo)
Onco -005 (Ac-GPSRVGG; not fully specified (C-terminus); also: gamma-carboxyglutamic acid, no place given)	approximately 15 ×	
Onco-003: formula (I): R1 and R2 form trans-R,R-1,2-diaminocyclohexane, R3 and R4 joined by bidentate peptide AcGPSRVGGCD	approximately 15 ×	
cis-bis[AcGPSRVGGCNH2][trans-(1R,2R)-1,2-diaminocyclohexane]platinum(II) [Onco-001]		~130 µM
